Key:
Type in all cases: cell-based
[1] = tested on: Human umbilical vein endothelial cells; assay: Nucleoli and nuclear speckle morphology (fibrillarin, SC-35 immunostaining); conditions: for fibrillarin or SC-35 distribution: 2-D culture conditions; for patterns of fibrillarin and SC-35 staining: 3-D culture, VEGF/HGF-stimulated
From the text: (§1) At sites of tissue damage, inflammation or neoplasia, fibrinogen is converted into a 3-D meshwork of fibrin fibrils that serve as a structural support for endothelial cells undergoing neovascularization (Chun et al. 2006. Cell, 125: 577-591; Hiraoka et al. 1998. Cell, 95: 365-377; Schafer and Werner. 2008. Nat. Rev. Mol. Cell Biol., 9: 628-638; Zhou et al. 2008. Genes Dev., 22: 1231-1243). This process can be recapitulated in vitro by embedding serum-supplemented human endothelial cells within a 3-D fibrin gel in the presence of the pro-angiogenic factors, VEGF and HGF. Human umbilical vein endothelial cells were isolated from umbilical cords by perfusion of the umbilical vein with type 3 collagenase (Worthington, Lakewood, N.J.) and cultured in Medium-199 (Invitrogen, Carlsbad, Calif.) with 20% human serum and 50 μg/ml endothelial cell growth supplement (ECGS; BD Biosciences, Franklin Lakes, N.J.). For 3-D culture, endothelial cells were suspended in a solution of thrombin and aprotinin (Sigma, St. Louis, Mo.) and mixed 1:1 with a solution of 6 mg/ml fibrinogen (Calbiochem, Gibbstown, N.J.). Vasculogenesis was triggered by treatment with 100 ng/ml VEGF, 50 ng/ml HGF (Genentech, San Francisco, Calif.). Fibronectin fibrillogenesis was tracked in 3-D by co-culture with human fibronectin (Sigma) labeled with Alexa-594 (Invitrogen).
The morphology of nucleoli and nuclear speckles—which serve, respectively, as ribosomal RNA and pre-mRNA processing sites—was assessed by immunostaining for fibrillarin (a pre-rRNA processing protein) or SC-35 (a pre-mRNA splicing protein) (Tang et al., supra). […] Likewise, nuclear speckle morphology changed from a small number of large foci to more numerous, smaller foci.

[2] = tested on: Human umbilical vein endothelial cells; assay: RNA synthesis (transcriptional activity) in cultured endothelial cells; conditions: for transcriptional activity: 2-D culture conditions; for VEGF/HGF induction of transcriptional activity (RNA synthesis) / mRNA and rRNA synthesis inhibited: 3-D culture; for mRNA and rRNA synthesis inhibited: low dose actinomysin D used to separate rRNA synthesis, data not shown
From the text: as §1
VEGF/HGF-induced chromatin dispersion, histone acetylation, and nuclear speckle decompaction observed in 3-D culture are consistent with global activation of transcription (Lamond and Spector, 2003. Nat. Rev. Mil. Cell Biol., 4: 605-612; Tang et al., supra). As such, RNA synthesis was quantified in cultured endothelial cells. […] Under 2-D culture conditions, transcriptional activity proceeded independently of pericellular ECM remodeling and was unaffected by FUD or GM6001.

[3] = tested on: Human umbilical vein endothelial cells; assay: Protein synthesis in 3-D-embedded endothelial cells; conditions: growth factor-stimulated cells
From the text: The laminar network of type A and type B lamins directly or indirectly binds chromatin and DNA, as well as a variety of inner nuclear membrane proteins functionally linked to nuclear architecture and mechanical integrity, chromatin organization, gene regulation, and DNA replication (Crisp and Burke, supra; Dechat et al., supra; Starr, supra).

[4] = tested on: Human umbilical vein endothelial cells; assay: Atomic force microscopy micro-indentation of pericellular ECM rigidity; conditions: VEGF/HGF-stimulated, fibrin gels
Experimental: Since ECM rigidity regulates cytoskeletal remodeling and force generation, and consequently cell function (Engler et al., 2006. Cell, 126: 677-689; Wozniak and Chen, supra; Zajac and Discher, 2008. Curr. Opin. Cell Biol., 20: 609-615), atomic force microscopy micro-indentation (AFM) was employed to quantify endothelial cell-dependent changes in ECM remodeling. AFM was performed by first washing fibrin gels with phosphate buffered saline (PBS) after removing culture medium. Samples were mechanically characterized using an Asylum MFP-3D atomic force microscope (Asylum Research, Santa Barbara, Calif.). Micro-indentation was performed using a sphere-tipped probe (Novascan, Ames, Iowa) with a sphere diameter of 5 μm and a nominal spring constant of ˜60 pN/nm. The cantilever spring constant was confirmed by thermal fluctuation method (Thundat et al., 1994. Applied Physics Letters, 64: 2894-2896). The AFM system was calibrated by following the manufacturer's recommended procedure before each indentation measurement. AFM micro-indentation was performed in PBS solution at room temperature. Individual force-indentation profile was acquired at an indentation rate of 2 μm/s using deflection trigger mode with a trigger value of 200 nm. […] Shear modulus at each position was calculated from fitting force-indentation data using a Hertz sphere model (Richert et al., 2004, Biomacromolecules, 5: 1908-1916).

Compound	fibrillarin or SC-35 distribution [1]	patterns of fibrillarin and SC-35 staining [1]	transcriptional activity [2]	VEGF/HGF induction of transcriptional activity (RNA synthesis) [2]	mRNA and rRNA synthesis inhibited [2] [%]	protein synthesis [3]	3-D pericellular rigidity (shear modulus by AFM) [4]
CNC(=O)[C@H](Cc1c[nH]c2ccccc12)NC(=O)[C@@H](CC(=O)NO)CC(C)C [GM6001]	did not affect	reversed to that resembling unstimulated endothelial cells	unaffected	attenuated significantly	~50	no major changes	significantly lower
FUD: 49-residue functional upstream domain of Streptococcus pyogenes F1 adhesion protein, SEQ ID NO: 10; fibronectin fibril assembly inhibitor (KDQSPLAGESGETEYITEVYGNQQNPVDIDKKLPNETGFSGNMVETEDT; Streptococcus pyogenes; Functional Upstream Domain (FUD) of F1 adhesion protein)	did not affect	reversed to that resembling unstimulated endothelial cells	unaffected	attenuated significantly	~50	no major changes	significantly lower
